Legend:
Assay in all cases: Post-emergence herbicidal activity test (stem and leaf spray, pot culture)
Assay type in all cases: in vivo
Settings in all cases: 3 weeks after spraying
[1] = system: Trifoliumre pensL.
How it was run: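 Rates of 10, 5 and 2.5 g/mu were applied in a single spray-tower treatment to 2–3-leaf plants, thinned to 10 per pot. Formulation: acetone solution, Tween 80, 1.5 L/ha methyl oleate synergist. Weed response assessed after 3 further greenhouse weeks; mean of three experiments.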

[2] = system: Portulaca oleracea
How it was run: (§1)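 Activity is given as a 0–5 grade of fresh weight growth control, scored three weeks after a single stem-and-leaf spray. Weeds in farmland loam were treated at the 2- to 3-leaf stage at 10, 5 and 2.5 g/mu, with methyl oleate added as synergist.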

[3] = system: Setaria viridis
How it was run: as §1

[4] = system: Echinochloa crusgalli
How it was run: as §1

[5] = system: Abutilon theophrasti
How it was run: as §1

[6] = system: Amaranthus retroflexus
How it was run: as §1

O=C1C2=C(CCCC2)C(=O)N1c1cc(OCc2nnc(-c3ccccc3F)o2)c(Cl)cc1F [Compound B1]
Post-emergence herbicidal activity, Trifoliumre pensL. (grade) ([1]; dosage 2.5 g/mu): 5 (Grade 5: the growth control rate is greater than or equal to 85%)
Post-emergence herbicidal activity, Trifoliumre pensL. (grade) ([1]; dosage 5 g/mu): 5 (Grade 5: the growth control rate is greater than or equal to 85%)
Post-emergence herbicidal activity, Trifoliumre pensL. (grade) ([1]; dosage 10 g/mu): 5 (Grade 5: the growth control rate is greater than or equal to 85%)
Post-emergence herbicidal activity, P. oleracea (grade) ([2]; dosage 2.5 g/mu): 5 (Grade 5: the growth control rate is greater than or equal to 85%)
Post-emergence herbicidal activity, P. oleracea (grade) ([2]; dosage 5 g/mu): 5 (Grade 5: the growth control rate is greater than or equal to 85%)
Post-emergence herbicidal activity, P. oleracea (grade) ([2]; dosage 10 g/mu): 5 (Grade 5: the growth control rate is greater than or equal to 85%)
Post-emergence herbicidal activity, S. viridis (grade) ([3]; dosage 2.5 g/mu): 2 (Grade 2: the growth control rate is greater than or equal to 20% and less than 40%)
Post-emergence herbicidal activity, S. viridis (grade) ([3]; dosage 5 g/mu): 3 (Grade 3: the growth control rate is greater than or equal to 40% and less than 60%)
Post-emergence herbicidal activity, S. viridis (grade) ([3]; dosage 10 g/mu): 4 (Grade 4: the growth control rate is greater than or equal to 60% and less than 85%)
Post-emergence herbicidal activity, E. crusgalli (grade) ([4]; dosage 2.5 g/mu): 1 (Grade 1: the growth control rate is greater than or equal to 5% and less than 20%)
Post-emergence herbicidal activity, E. crusgalli (grade) ([4]; dosage 5 g/mu): 2 (Grade 2: the growth control rate is greater than or equal to 20% and less than 40%)
Post-emergence herbicidal activity, E. crusgalli (grade) ([4]; dosage 10 g/mu): 3 (Grade 3: the growth control rate is greater than or equal to 40% and less than 60%)
Post-emergence herbicidal activity, A. theophrasti (grade) ([5]; dosage 2.5 g/mu): 5 (Grade 5: the growth control rate is greater than or equal to 85%)
Post-emergence herbicidal activity, A. theophrasti (grade) ([5]; dosage 5 g/mu): 5 (Grade 5: the growth control rate is greater than or equal to 85%)
Post-emergence herbicidal activity, A. theophrasti (grade) ([5]; dosage 10 g/mu): 5 (Grade 5: the growth control rate is greater than or equal to 85%)
Post-emergence herbicidal activity, A. retroflexus (grade) ([6]; dosage 2.5 g/mu): 5 (Grade 5: the growth control rate is greater than or equal to 85%)
Post-emergence herbicidal activity, A. retroflexus (grade) ([6]; dosage 5 g/mu): 5 (Grade 5: the growth control rate is greater than or equal to 85%)
Post-emergence herbicidal activity, A. retroflexus (grade) ([6]; dosage 10 g/mu): 5 (Grade 5: the growth control rate is greater than or equal to 85%)

Cc1cccc(-c2nnc(COc3cc(N4C(=O)C5=C(CCCC5)C4=O)c(F)cc3Cl)o2)c1 [Compound B3, 2-(4-chloro-2-fluoro-5-(5-(3-tolyl)-1,3,4-oxadiazole-2-methoxy)phenyl)-4,5,6,7-tetrahydro-1H-isoindole-1,3(2H)-dione]
Post-emergence herbicidal activity, Trifoliumre pensL. (grade) ([1]; dosage 2.5 g/mu): 5 (Grade 5: the growth control rate is greater than or equal to 85%)
Post-emergence herbicidal activity, Trifoliumre pensL. (grade) ([1]; dosage 5 g/mu): 5 (Grade 5: the growth control rate is greater than or equal to 85%)
Post-emergence herbicidal activity, Trifoliumre pensL. (grade) ([1]; dosage 10 g/mu): 5 (Grade 5: the growth control rate is greater than or equal to 85%)
Post-emergence herbicidal activity, P. oleracea (grade) ([2]; dosage 2.5 g/mu): 5 (Grade 5: the growth control rate is greater than or equal to 85%)
Post-emergence herbicidal activity, P. oleracea (grade) ([2]; dosage 5 g/mu): 5 (Grade 5: the growth control rate is greater than or equal to 85%)
Post-emergence herbicidal activity, P. oleracea (grade) ([2]; dosage 10 g/mu): 5 (Grade 5: the growth control rate is greater than or equal to 85%)
Post-emergence herbicidal activity, S. viridis (grade) ([3]; dosage 2.5 g/mu): 2 (Grade 2: the growth control rate is greater than or equal to 20% and less than 40%)
Post-emergence herbicidal activity, S. viridis (grade) ([3]; dosage 5 g/mu): 3 (Grade 3: the growth control rate is greater than or equal to 40% and less than 60%)
Post-emergence herbicidal activity, S. viridis (grade) ([3]; dosage 10 g/mu): 4 (Grade 4: the growth control rate is greater than or equal to 60% and less than 85%)
Post-emergence herbicidal activity, E. crusgalli (grade) ([4]; dosage 2.5 g/mu): 1 (Grade 1: the growth control rate is greater than or equal to 5% and less than 20%)
Post-emergence herbicidal activity, E. crusgalli (grade) ([4]; dosage 5 g/mu): 2 (Grade 2: the growth control rate is greater than or equal to 20% and less than 40%)
Post-emergence herbicidal activity, E. crusgalli (grade) ([4]; dosage 10 g/mu): 3 (Grade 3: the growth control rate is greater than or equal to 40% and less than 60%)
Post-emergence herbicidal activity, A. theophrasti (grade) ([5]; dosage 2.5 g/mu): 5 (Grade 5: the growth control rate is greater than or equal to 85%)
Post-emergence herbicidal activity, A. theophrasti (grade) ([5]; dosage 5 g/mu): 5 (Grade 5: the growth control rate is greater than or equal to 85%)
Post-emergence herbicidal activity, A. theophrasti (grade) ([5]; dosage 10 g/mu): 5 (Grade 5: the growth control rate is greater than or equal to 85%)
Post-emergence herbicidal activity, A. retroflexus (grade) ([6]; dosage 2.5 g/mu): 5 (Grade 5: the growth control rate is greater than or equal to 85%)
Post-emergence herbicidal activity, A. retroflexus (grade) ([6]; dosage 5 g/mu): 5 (Grade 5: the growth control rate is greater than or equal to 85%)
Post-emergence herbicidal activity, A. retroflexus (grade) ([6]; dosage 10 g/mu): 5 (Grade 5: the growth control rate is greater than or equal to 85%)

O=C1C2=C(CCCC2)C(=O)N1c1cc(OCc2nnc(-c3ccccc3F)o2)c(Cl)cc1F [Compound B4]
Post-emergence herbicidal activity, Trifoliumre pensL. (grade) ([1]; dosage 2.5 g/mu): 5 (Grade 5: the growth control rate is greater than or equal to 85%)
Post-emergence herbicidal activity, Trifoliumre pensL. (grade) ([1]; dosage 5 g/mu): 5 (Grade 5: the growth control rate is greater than or equal to 85%)
Post-emergence herbicidal activity, Trifoliumre pensL. (grade) ([1]; dosage 10 g/mu): 5 (Grade 5: the growth control rate is greater than or equal to 85%)
Post-emergence herbicidal activity, P. oleracea (grade) ([2]; dosage 2.5 g/mu): 4 (Grade 4: the growth control rate is greater than or equal to 60% and less than 85%)
Post-emergence herbicidal activity, P. oleracea (grade) ([2]; dosage 5 g/mu): 5 (Grade 5: the growth control rate is greater than or equal to 85%)
Post-emergence herbicidal activity, P. oleracea (grade) ([2]; dosage 10 g/mu): 5 (Grade 5: the growth control rate is greater than or equal to 85%)
Post-emergence herbicidal activity, S. viridis (grade) ([3]; dosage 2.5 g/mu): 2 (Grade 2: the growth control rate is greater than or equal to 20% and less than 40%)
Post-emergence herbicidal activity, S. viridis (grade) ([3]; dosage 5 g/mu): 3 (Grade 3: the growth control rate is greater than or equal to 40% and less than 60%)
Post-emergence herbicidal activity, S. viridis (grade) ([3]; dosage 10 g/mu): 4 (Grade 4: the growth control rate is greater than or equal to 60% and less than 85%)
Post-emergence herbicidal activity, E. crusgalli (grade) ([4]; dosage 2.5 g/mu): 1 (Grade 1: the growth control rate is greater than or equal to 5% and less than 20%)
Post-emergence herbicidal activity, E. crusgalli (grade) ([4]; dosage 5 g/mu): 2 (Grade 2: the growth control rate is greater than or equal to 20% and less than 40%)
Post-emergence herbicidal activity, E. crusgalli (grade) ([4]; dosage 10 g/mu): 3 (Grade 3: the growth control rate is greater than or equal to 40% and less than 60%)
Post-emergence herbicidal activity, A. theophrasti (grade) ([5]; dosage 2.5 g/mu): 4 (Grade 4: the growth control rate is greater than or equal to 60% and less than 85%)
Post-emergence herbicidal activity, A. theophrasti (grade) ([5]; dosage 5 g/mu): 5 (Grade 5: the growth control rate is greater than or equal to 85%)
Post-emergence herbicidal activity, A. theophrasti (grade) ([5]; dosage 10 g/mu): 5 (Grade 5: the growth control rate is greater than or equal to 85%)
Post-emergence herbicidal activity, A. retroflexus (grade) ([6]; dosage 2.5 g/mu): 5 (Grade 5: the growth control rate is greater than or equal to 85%)
Post-emergence herbicidal activity, A. retroflexus (grade) ([6]; dosage 5 g/mu): 5 (Grade 5: the growth control rate is greater than or equal to 85%)
Post-emergence herbicidal activity, A. retroflexus (grade) ([6]; dosage 10 g/mu): 5 (Grade 5: the growth control rate is greater than or equal to 85%)

O=C1C2=C(CCCC2)C(=O)N1c1cc(OCc2nnc(-c3ccccc3Cl)o2)c(Cl)cc1F [Compound B5]
Post-emergence herbicidal activity, Trifoliumre pensL. (grade) ([1]; dosage 2.5 g/mu): 5 (Grade 5: the growth control rate is greater than or equal to 85%)
Post-emergence herbicidal activity, Trifoliumre pensL. (grade) ([1]; dosage 5 g/mu): 5 (Grade 5: the growth control rate is greater than or equal to 85%)
Post-emergence herbicidal activity, Trifoliumre pensL. (grade) ([1]; dosage 10 g/mu): 5 (Grade 5: the growth control rate is greater than or equal to 85%)
Post-emergence herbicidal activity, P. oleracea (grade) ([2]; dosage 2.5 g/mu): 5 (Grade 5: the growth control rate is greater than or equal to 85%)
Post-emergence herbicidal activity, P. oleracea (grade) ([2]; dosage 5 g/mu): 5 (Grade 5: the growth control rate is greater than or equal to 85%)
Post-emergence herbicidal activity, P. oleracea (grade) ([2]; dosage 10 g/mu): 5 (Grade 5: the growth control rate is greater than or equal to 85%)
Post-emergence herbicidal activity, S. viridis (grade) ([3]; dosage 2.5 g/mu): 2 (Grade 2: the growth control rate is greater than or equal to 20% and less than 40%)
Post-emergence herbicidal activity, S. viridis (grade) ([3]; dosage 5 g/mu): 3 (Grade 3: the growth control rate is greater than or equal to 40% and less than 60%)
Post-emergence herbicidal activity, S. viridis (grade) ([3]; dosage 10 g/mu): 4 (Grade 4: the growth control rate is greater than or equal to 60% and less than 85%)
Post-emergence herbicidal activity, E. crusgalli (grade) ([4]; dosage 2.5 g/mu): 1 (Grade 1: the growth control rate is greater than or equal to 5% and less than 20%)
Post-emergence herbicidal activity, E. crusgalli (grade) ([4]; dosage 5 g/mu): 2 (Grade 2: the growth control rate is greater than or equal to 20% and less than 40%)
Post-emergence herbicidal activity, E. crusgalli (grade) ([4]; dosage 10 g/mu): 3 (Grade 3: the growth control rate is greater than or equal to 40% and less than 60%)
Post-emergence herbicidal activity, A. theophrasti (grade) ([5]; dosage 2.5 g/mu): 5 (Grade 5: the growth control rate is greater than or equal to 85%)
Post-emergence herbicidal activity, A. theophrasti (grade) ([5]; dosage 5 g/mu): 5 (Grade 5: the growth control rate is greater than or equal to 85%)
Post-emergence herbicidal activity, A. theophrasti (grade) ([5]; dosage 10 g/mu): 5 (Grade 5: the growth control rate is greater than or equal to 85%)
Post-emergence herbicidal activity, A. retroflexus (grade) ([6]; dosage 2.5 g/mu): 5 (Grade 5: the growth control rate is greater than or equal to 85%)
Post-emergence herbicidal activity, A. retroflexus (grade) ([6]; dosage 5 g/mu): 5 (Grade 5: the growth control rate is greater than or equal to 85%)
Post-emergence herbicidal activity, A. retroflexus (grade) ([6]; dosage 10 g/mu): 5 (Grade 5: the growth control rate is greater than or equal to 85%)
